Type in all cases: cell-based, influenza A virus
Experiment [1] deals with M2 S31N/G34E mutant influenza virus strain.
In experiment [2] the test system is M2 S31N mutant influenza virus strain.
The test system of experiment [3] is M2 S31N/L46P mutant influenza virus strain.
The subject of experiment [4] is NA-H274Y mutant influenza virus strain.

As for `NC12CC3CC(CC(C3)C1)C2` [amantadine], the IC50 (usually the concentration at which inhibition is half-maximal) in experiment [1] is over 100 µM; in experiment [2], 24.7 µM; in experiment [3], 65.9 µM.

Compound `CCOC(=O)C1=C[C@@H](OC(CC)CC)[C@H](NC(C)=O)[C@@H](N)C1` [oseltamivir] showed an IC50 in experiment [4] of 2.67 µM. This lies in the single-digit micromolar range.

The values above are taken from patent publication US20220202929A1, “DRUG-RESISTANT INFLUENZA VIRUS STRAINS” (President and Fellows of Harvard College, priority 2019, published 2022).
